In ChEMBL document CHEMBL3352633, “β-Lactam estrogen receptor antagonists and a dual-targeting estrogen receptor/tubulin ligand” (J Med Chem, 2014):
Activity calls are given as the source filed them. The rule behind the calls is not given here.

Columns and labels:
Estrogen receptor beta [1] = biological target: T1, Estrogen receptor beta (Homo sapiens, UniProt Q92731)
Description: (§1) Displacement of fluorescein-labeled estrogen from human recombinant ERbeta by fluorescence polarization based competitive binding affinity assay

MCF7 [2] = assay: cells; settings: Homo sapiens, MCF7, 72 h
Estrogen receptor [3] = biological target: T2, Estrogen receptor (Homo sapiens, UniProt P03372)
T2 sequence (P03372 whole entry): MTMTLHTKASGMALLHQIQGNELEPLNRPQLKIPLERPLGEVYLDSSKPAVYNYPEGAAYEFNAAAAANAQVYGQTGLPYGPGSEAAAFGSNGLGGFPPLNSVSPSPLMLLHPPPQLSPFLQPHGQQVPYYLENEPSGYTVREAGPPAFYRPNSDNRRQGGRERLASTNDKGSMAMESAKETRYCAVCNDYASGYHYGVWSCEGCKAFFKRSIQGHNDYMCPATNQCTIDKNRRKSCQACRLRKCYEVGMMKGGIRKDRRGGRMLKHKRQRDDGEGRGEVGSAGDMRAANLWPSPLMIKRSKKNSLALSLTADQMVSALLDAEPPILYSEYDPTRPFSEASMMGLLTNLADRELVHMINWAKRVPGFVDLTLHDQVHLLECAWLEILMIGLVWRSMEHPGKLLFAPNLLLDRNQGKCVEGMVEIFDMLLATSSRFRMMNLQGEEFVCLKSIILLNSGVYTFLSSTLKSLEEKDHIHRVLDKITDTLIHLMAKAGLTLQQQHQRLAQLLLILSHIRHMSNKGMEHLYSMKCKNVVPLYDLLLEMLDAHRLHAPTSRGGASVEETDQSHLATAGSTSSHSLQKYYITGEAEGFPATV
Description: (§2) Displacement of fluorescein-labeled estrogen from human recombinant ERalpha by fluorescence polarization based competitive binding affinity assay

Estrogen receptor [4] = biological target: T2, Estrogen receptor; assay: Antagonist activity at human recombinant ERalpha by FRET assay
[5] = biological target: T3, Estrogen receptor (Homo sapiens) (UniProt P03372); assay: Agonist activity at human recombinant ERalpha by FRET assay
T3 sequence (whole entry): T2 sequence (P03372 whole entry)

Estrogen receptor beta [6] = biological target: T1, Estrogen receptor beta; assay: Displacement of fluorescein-labeled estrogen from human recombinant ERbeta at 1 uM by fluorescence polarization based competitive binding affinity assay
[7] = biological target: T3, Estrogen receptor (Homo sapiens); assay: Displacement of fluorescein-labeled estrogen from human recombinant ERalpha at 1 uM by fluorescence polarization based competitive binding affinity assay
MCF7 [8] = assay: Induction of cell cycle arrest in human MCF7 cells assessed as accumulation at G2/M phase at 10 uM after 24 hrs by propidium iodide staining based flow cytometry; type: functional
Estrogen receptor [9] = biological target: T2, Estrogen receptor; remark: listed apart in the source
Description: as §2

Estrogen receptor beta [10] = biological target: T1, Estrogen receptor beta; remark: listed apart in the source
Description: as §1

MCF7 [11] = assay: Induction of cell cycle arrest in human MCF7 cells assessed as increase in accumulation at sub-G1 phase at >10 nM after 24 hrs by propidium iodide staining based flow cytometry; type: functional
MCF7 [12] = assay: Induction of cell cycle arrest in human MCF7 cells assessed as increase in accumulation at sub-G1 phase at 1 to 10 uM after 24 hrs by propidium iodide staining based flow cytometry; type: functional
MCF7 [13] = assay: Induction of cell cycle arrest in human MCF7 cells assessed as accumulation at G2/M phase at >100 nM after 24 hrs by propidium iodide staining based flow cytometry; type: functional
MCF7 [14] = assay: Induction of cell cycle arrest in human MCF7 cells assessed as accumulation at subG1 phase at 1 to 10 uM after 48 hrs by propidium iodide staining based flow cytometry (reference value: 1.9%); type: functional
MCF7 [15] = assay: Reduction in Mcl-1 expression in human MCF7 cells at 10 uM after 72 hrs by SDS-PAGE and Western blot method; type: functional, cell-based
MCF7 [16] = assay: Reduction in Bcl-2 expression in human MCF7 cells at 10 uM after 48 hrs by SDS-PAGE and Western blot method; type: functional, cell-based
Tubulin (Homo sapiens) = Tubulin (Homo sapiens) (UniProt P68371+Q9H4B7+P0DPH7+P68366+Q13509+Q71U36+P04350+Q3ZCM7+P07437+P68363+Q9BQE3+Q6PEY2+Q13885+Q9BVA1+Q9BUF5); assay: Induction of tubulin depolymerization in human MCF7 cells at 1 uM after 4 hrs by sedimentation assay and Western blotting method; type: cell-based
MCF7 [17] = assay: Induction of cell cycle arrest in human MCF7 cells assessed as accumulation at G2/M phase at 1 to 10 uM after 24 hrs by propidium iodide staining based flow cytometry; type: functional
MCF7 [18] = assay: Reduction in Bcl-2 expression in human MCF7 cells at 10 uM after 72 hrs by SDS-PAGE and Western blot method; type: functional, cell-based
MCF7 [19] = assay: Induction of cell cycle arrest in human MCF7 cells assessed as accumulation at subG1 phase at 1 to 10 uM after 24 hrs by propidium iodide staining based flow cytometry; type: functional
MCF7 [20] = assay: Induction of cell cycle arrest in human MCF7 cells assessed as accumulation at subG1 phase at 1 to 10 uM after 72 hrs by propidium iodide staining based flow cytometry (reference value: 3.7%); type: functional

T1 sequence (Q92731 whole entry): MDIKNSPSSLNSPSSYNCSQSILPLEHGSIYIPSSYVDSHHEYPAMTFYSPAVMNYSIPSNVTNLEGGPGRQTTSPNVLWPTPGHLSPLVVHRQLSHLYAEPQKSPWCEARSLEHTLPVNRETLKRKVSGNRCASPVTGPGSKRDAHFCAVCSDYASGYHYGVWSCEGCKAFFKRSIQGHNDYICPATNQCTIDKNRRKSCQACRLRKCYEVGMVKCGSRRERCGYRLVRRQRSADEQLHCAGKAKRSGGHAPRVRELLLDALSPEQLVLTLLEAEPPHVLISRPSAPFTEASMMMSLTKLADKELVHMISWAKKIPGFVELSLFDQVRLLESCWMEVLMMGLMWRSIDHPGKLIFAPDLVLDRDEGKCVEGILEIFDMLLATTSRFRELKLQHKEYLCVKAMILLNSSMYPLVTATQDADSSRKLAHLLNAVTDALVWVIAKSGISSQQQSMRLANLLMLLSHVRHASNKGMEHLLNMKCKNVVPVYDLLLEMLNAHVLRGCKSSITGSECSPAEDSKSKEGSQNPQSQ

SMILES | IC50 (Estrogen receptor beta [1]) [nM] | IC50 (MCF7 [2]) [nM] | IC50 (Estrogen receptor [3]) [nM] | further results
O=C1[C@@H](c2ccc(O)cc2)[C@H](c2ccc(O)cc2)N1c1ccc(O)cc1 (relative stereo) | 4800 | > 50000 | 1100 | IC50 (Estrogen receptor [4]): 1400 nM; Activity [5]: inactive
COc1cc([C@H]2[C@H](c3ccc(O)cc3)C(=O)N2c2ccc(O)cc2)cc(OC)c1OC (relative stereo) | 144000 | > 50000 | 18000 | –
O=C1[C@@H](C(O)c2ccc(O)cc2)[C@H](c2ccc(O)cc2)N1c1ccc(O)cc1 (stereo partly specified) | – | 49000 | – | inhibition (Estrogen receptor beta [6]): 43%; inhibition [7]: 40%
COc1cc([C@@H]2C(=O)N(c3ccc(O)cc3)[C@H]2c2ccc(O)cc2)cc(OC)c1OC (relative stereo) | 23000 | > 50000 | 1470 | –
O=C1N(c2ccc(O)cc2)[C@@H](c2ccc(O)cc2)C1(c1ccccc1)c1ccccc1 | 19 | > 50000 | 40 | –
COc1ccc([C@H]2[C@H](C(O)c3ccc(O)cc3)C(=O)N2c2ccc(OC)cc2)cc1 (stereo partly specified) | – | 32000 | – | inhibition (Estrogen receptor beta [6]): 75%; inhibition [7]: 37%
O=C1[C@@H](c2ccccc2)[C@H](c2ccc(O)cc2)N1c1ccc(O)cc1 (relative stereo) | 980 | > 50000 | 230 | –
COc1ccc([C@H]2[C@H](C(O)c3ccc(OCCN4CCCC4)cc3)C(=O)N2c2cc(OC)c(OC)c(OC)c2)cc1 (stereo partly specified) | – | 3800 | – | Activity (MCF7 [8]): Active; IC50 (Estrogen receptor [9]): Not Active; IC50 (Estrogen receptor beta [10]): Not Active; Activity (MCF7 [11]): Active
O=C1[C@@H](c2ccc3ccccc3c2)[C@H](c2ccc(O)cc2)N1c1ccc(O)cc1 (relative stereo) | 1100 | > 50000 | 150 | –
O=C1C[C@H](c2ccc(O)cc2)N1c1ccc(O)cc1 | 56000 | > 50000 | 13000 | –
COc1ccc([C@H]2CC(=O)N2c2cc(OC)c(OC)c(OC)c2)cc1 | – | – | – | Activity (MCF7 [12]): Active; Activity (MCF7 [13]): Active; IC50 (Estrogen receptor [9]): Not Active; IC50 (Estrogen receptor beta [10]): Not Active
COc1ccc([C@H]2[C@H](C(O)c3ccc(O)cc3)C(=O)N2c2cc(OC)c(OC)c(OC)c2)cc1 (stereo partly specified) | 15 | 210 | 8 | Activity (MCF7 [14]): 9.3%; Activity (MCF7 [15]): Active; Activity (MCF7 [16]): Active; Activity (Tubulin (Homo sapiens)): Active; inhibition (Estrogen receptor beta [6]): 94%; Activity (MCF7 [17]): Active; Activity (MCF7 [18]): Active; inhibition [7]: 93%; Activity (MCF7 [19]): inactive; Activity (MCF7 [20]): 17%
COC(=O)Nc1nc2cc(C(=O)c3cccs3)ccc2[nH]1 | – | – | – | Activity (Tubulin (Homo sapiens)): Active
COc1ccc([C@@H]2[C@@H](c3ccc(C(O)c4ccc(OCCN5CCCC5)cc4)cc3)C(=O)N2c2ccc(OC)cc2)cc1 (stereo partly specified) | – | 4630 | – | –
O=C1[C@@H](Oc2ccccc2)[C@H](c2ccc(O)cc2)N1c1ccc(O)cc1 (relative stereo) | 1200 | > 50000 | 140 | –
